# Laboratory results reported in US20240082238A1, “COMPOSITIONS AND METHODS FOR TREATING CANCER” (UNIVERSITY OF IOWA RESEARCH FOUNDATION, priority 2021, published 2024).
# Legend:
# cancer cell lines = test: Cytotoxicity (MTS), CIP2b with checkpoint inhibitors; format: cell-based; settings: AZD7762 50 and 75 nM; MK1775 150 and 250 nM
# Procedure: (§1) Cytotoxicity assay. Hec50co cells were seeded at 1500 cells per well in 96-well plates for 24 h in a complete medium. Later, the medium was removed and PTX, CIP2b, or CIP (all dissolved in DMSO and diluted in complete medium) were added to cells as either monotherapies or in combinations, and the plates were incubated for 72 hours. Then, the complete medium was removed and MTS reagent in the complete medium was added to wells, and the plates were incubated for 1-4 hours according to the manufacturer's protocol. Finally, the absorbance was recorded at 490 nm using a Spectra Max plus 384 Microplate Spectrophotometer (Molecular Devices, Sunnyvale, CA). Percentage cell viability was expressed as the average absorbance of the test group relative to that of the control group (untreated cells). The concentration that inhibits proliferation of 50% of cells compared to control (IC50) was calculated using GraphPad Prism (La Jolla, CA). Synergism was detected following the Chou-Talalay method (CI<1 indicates synergism) (Chou T C. Cancer research. 2010; 70(2):440-6, doi: 10.1158/0008-5472.CAN-09-1947) using CompuSyn software (Ver. 1.0).
# Cytotoxicity was evaluated using the MTS assay described above.
# human Topo I = molecular target: T1, human Topo I (Homo sapiens, UniProt P11387); test: Topoisomerase I inhibition assay (plasmid-based); format: biochemical; settings: drug final concentration 100 μM
# T1 construct: purchased TopoGEN Inc. TG1015-1A
# T1 sequence (P11387 1-765): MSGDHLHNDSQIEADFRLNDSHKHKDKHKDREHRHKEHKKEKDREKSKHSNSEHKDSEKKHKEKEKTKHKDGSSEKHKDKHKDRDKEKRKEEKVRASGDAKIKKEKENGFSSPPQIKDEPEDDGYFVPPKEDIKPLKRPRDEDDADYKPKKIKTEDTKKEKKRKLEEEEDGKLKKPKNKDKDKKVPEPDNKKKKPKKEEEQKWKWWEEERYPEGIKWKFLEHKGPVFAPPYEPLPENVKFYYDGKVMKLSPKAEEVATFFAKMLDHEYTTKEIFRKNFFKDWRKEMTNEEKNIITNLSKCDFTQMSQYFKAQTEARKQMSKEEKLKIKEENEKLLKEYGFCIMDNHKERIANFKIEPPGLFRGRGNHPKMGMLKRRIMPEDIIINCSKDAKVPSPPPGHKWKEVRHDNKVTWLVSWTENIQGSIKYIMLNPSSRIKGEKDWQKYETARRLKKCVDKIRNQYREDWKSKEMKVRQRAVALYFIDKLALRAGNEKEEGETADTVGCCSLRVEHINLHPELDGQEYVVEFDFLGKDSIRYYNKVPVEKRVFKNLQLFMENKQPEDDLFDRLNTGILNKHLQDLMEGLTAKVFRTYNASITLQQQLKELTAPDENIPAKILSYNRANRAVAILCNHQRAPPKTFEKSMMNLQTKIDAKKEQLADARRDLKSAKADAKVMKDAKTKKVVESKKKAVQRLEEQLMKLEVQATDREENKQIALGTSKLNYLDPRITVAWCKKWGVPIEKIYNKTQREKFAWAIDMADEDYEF
# Procedure: Topoisomerase I inhibition assay. A plasmid-based Topo I assay (Cat. No. TG1015-1A, TopoGEN Inc., Buena Vista, CO) was performed according to the manufacturer's instructions. Briefly, 1 μL of the test compounds (PTX, CIP, CIP2b, or CAM) at a concentration of 2 mM, was mixed with 2 μL of the reaction buffer (10× tris-glycine-SDS), and deionized water was added to make 18 μL solution. This was followed by adding 1 μL of supercoiled DNA (SC DNA) and 1 μL of human Topo I (10 U/μL) (drug final concentration was 100 μM). Also, SC DNA±Topo I was used as a control (i.e., not containing drugs). In addition, relaxed DNA was added as another control in this assay. Samples were incubated on a heating block (Isotemp 125 D Digital Heat Block, ThermoFisher Scientific) set at 37° C. for 30 minutes. Then, the reaction was stopped by adding a 5× stop buffer. Samples were then loaded directly into the wells of a 1% agarose gel (Research Products International, Mount Prospect, IL). The gel was run at 150 V until the dye front had traveled approximately 5 cm (run time was approximately 2 hours). The gel was then stained with 1 μg/mL ethidium bromide in deionized water for 15 minutes, and this was followed by de-staining (washing) with deionized water for 30 min before imaging. The image was then taken using an Invitrogen iBright CL 1500 Imaging System (ThermoFisher Scientific). The intensity of the final bands in the gel was quantified using ImageJ, and the results are expressed as the percentage of Topo I inhibition.
# Hec50co cells = test: Cytotoxicity assay (MTS), Hec50co cells; format: cell-based, human; settings: 10 μM CIP added to PTX, 72 h
# Procedure: as §1, with “1.0). […]” for “1.0).”
# human Topo IIα = molecular target: T2, human Topo IIα (Homo sapiens, UniProt P11388); test: Topoisomerase II inhibition assay (plasmid-based); format: biochemical; settings: drug final concentration 100 μM; read-out: percentage of Topo II inhibition
# T2 construct: purchased TopoGEN Inc. TG1001-1A
# Procedure: Topoisomerase II inhibition assay. A plasmid-based Topo II assay (Cat. No. TG1001-1A, TopoGEN Inc., Buena Vista, CO) was performed according to the manufacturer's instructions. In this experiment, 1 μL of tested compounds (PTX, CIP, CIP2b, ETO) at a concentration of 2 mM was mixed with 4 μL of the reaction buffer (mixture of buffer A (0.5 M Tris-HCl (pH 8), 1.50 M NaCl, 100 mM MgCl2, 5 mM Dithiothreitol, 300 μg BSA/mL) and buffer B (10× ATP Buffer), and deionized water was added to make 18 μL solution. This was followed by adding 1 μL of catenated DNA and 1 μL of human Topo IIα (8 U/μL) (drug final concentration was 100 μM). Additionally, decatenated DNA (De-CT DNA) and catenated DNA (CT DNA)±Topo II were used as a control (i.e., not containing drugs). Moreover, relaxed DNA was added as another control in this assay. Similar to Topo I assay, samples were then incubated on a heating block set at 37° C. for 30 minutes. Then, the reaction was stopped by the addition of a 5× stop buffer. Samples were then loaded directly into the wells of a 1% agarose gel containing 1 μg/mL ethidium bromide. The gel was run at 150 V until the dye front had traveled approximately 5 cm (run time was approximately 2 h). The gel was then washed with deionized water for 30 minutes before imaging. The image was taken using an Invitrogen iBright CL1500 Imaging System. The intensity of the final bands in the gel was quantified using ImageJ, and the results are expressed as the percentage of Topo II inhibition.
# [1] = tested on: advanced pancreatic ductal adenocarcinoma (PDAC); settings: patients with advanced PDAC; cited from earlier work
# T2 sequence (P11388 whole entry): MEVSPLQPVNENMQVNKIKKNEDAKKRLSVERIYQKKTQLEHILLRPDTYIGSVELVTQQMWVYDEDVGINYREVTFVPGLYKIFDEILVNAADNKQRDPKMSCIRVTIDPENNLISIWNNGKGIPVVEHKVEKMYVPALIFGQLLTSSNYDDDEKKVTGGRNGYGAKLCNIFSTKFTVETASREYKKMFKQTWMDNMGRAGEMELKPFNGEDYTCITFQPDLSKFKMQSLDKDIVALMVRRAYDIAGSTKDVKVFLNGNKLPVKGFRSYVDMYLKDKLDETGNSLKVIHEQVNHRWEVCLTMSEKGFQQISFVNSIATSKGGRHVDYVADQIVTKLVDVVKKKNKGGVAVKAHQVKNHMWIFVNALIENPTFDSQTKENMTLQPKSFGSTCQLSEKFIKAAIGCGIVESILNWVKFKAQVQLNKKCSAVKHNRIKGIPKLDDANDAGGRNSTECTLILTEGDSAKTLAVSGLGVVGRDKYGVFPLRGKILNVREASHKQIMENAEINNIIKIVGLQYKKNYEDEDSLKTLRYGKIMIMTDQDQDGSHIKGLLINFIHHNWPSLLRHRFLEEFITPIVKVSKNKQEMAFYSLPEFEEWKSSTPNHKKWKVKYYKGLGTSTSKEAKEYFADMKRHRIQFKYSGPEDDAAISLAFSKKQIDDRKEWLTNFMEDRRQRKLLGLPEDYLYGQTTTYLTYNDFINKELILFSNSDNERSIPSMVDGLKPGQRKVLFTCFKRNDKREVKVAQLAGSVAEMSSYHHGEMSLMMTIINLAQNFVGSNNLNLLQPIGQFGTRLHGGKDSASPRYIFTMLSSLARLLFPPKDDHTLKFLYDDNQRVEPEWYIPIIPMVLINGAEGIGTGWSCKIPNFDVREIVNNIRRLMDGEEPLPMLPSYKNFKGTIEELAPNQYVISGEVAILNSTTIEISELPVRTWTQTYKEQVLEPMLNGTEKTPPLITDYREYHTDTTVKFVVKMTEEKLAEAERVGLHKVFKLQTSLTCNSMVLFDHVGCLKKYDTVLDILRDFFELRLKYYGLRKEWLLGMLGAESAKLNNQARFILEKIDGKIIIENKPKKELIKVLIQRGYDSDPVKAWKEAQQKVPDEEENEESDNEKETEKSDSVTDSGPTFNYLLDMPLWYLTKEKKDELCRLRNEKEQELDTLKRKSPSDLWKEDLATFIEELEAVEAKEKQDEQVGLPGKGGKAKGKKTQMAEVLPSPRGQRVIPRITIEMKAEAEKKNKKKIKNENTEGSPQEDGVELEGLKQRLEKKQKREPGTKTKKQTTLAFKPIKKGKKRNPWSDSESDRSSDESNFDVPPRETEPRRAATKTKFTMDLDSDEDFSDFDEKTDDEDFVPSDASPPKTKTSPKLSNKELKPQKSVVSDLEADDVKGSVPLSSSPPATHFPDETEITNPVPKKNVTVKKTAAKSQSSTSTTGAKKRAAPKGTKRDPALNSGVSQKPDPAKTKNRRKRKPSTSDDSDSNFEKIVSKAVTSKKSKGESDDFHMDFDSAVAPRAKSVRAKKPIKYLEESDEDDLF
inhibition at 100 µM (human Topo IIα),SMILES,potentiation or synergism in combination with CIP2b (cancer cell lines),Topo I inhibitory activity (gel) (human Topo I),also measured
–,NC(=O)Nc1cc(-c2cccc(F)c2)sc1C(=O)N[C@H]1CCCNC1 [AZD7762],did not show any noticeable potentiation or synergism,–,–
–,"CC[C@@]1(O)C(=O)OCc2c1cc1n(c2=O)Cc2cc3ccccc3nc2-1 [CAM, camptothecin]",–,potent inhibitor of Topo I,–
62%,"O=C(O)c1cn(C2CC2)c2cc(N3CCNCC3)c(F)cc2c1=O [CIP, ciprofloxacin]",–,neither PTX nor CIP did inhibit Topo I,survival curve of PTX with added compound vs PTX alone (Hec50co cells): superimposed
~96%,"COc1cc([C@@H]2c3cc4c(cc3[C@@H](O[C@@H]3O[C@@H]5CO[C@@H](C)O[C@H]5[C@H](O)[C@H]3O)[C@H]3COC(=O)[C@H]23)OCO4)cc(OC)c1O [ETO, etoposide]",–,–,–
–,"C=CCn1c(=O)c2cnc(Nc3ccc(N4CCN(C)CC4)cc3)nc2n1-c1cccc(C(C)(C)O)n1 [MK1775, adavosertib]",did not show any noticeable potentiation or synergism,–,–
–,Nc1ccn([C@@H]2O[C@H](CO)[C@@H](O)C2(F)F)c(=O)n1 [gemcitabine],–,–,median survival [1]: 6.7-6.8 months
